From ChEMBL document CHEMBL6096629, “Indolo[3,2-c]isoquinoline Hydroxamic Acid Derivatives as Novel Orally Topoisomerase-Histone Deacetylase Dual Inhibitors for NSCLC Therapy” (J Med Chem, 2025)

What was measured:
NCI-H1975 [1] = test: Induction of cell cycle arrest in human NCI-H1975 cells assessed as accumulation at G2/M phase at 4 uM incubated for 48 hrs by PI staining based flow cytometry relative to control; format: functional
[2] = Toxicity BALB/c nude mouse xenografted with human NCI-H1975 cells assessed as body weight loss at 100 mg/kg, po qd in presence of Irinotecan treated for 21 days (Rvb > 11.5 %); format: organism-based; conditions: in vivo, 504 h, time 21 day
NCI-H1975 [3] = test: Induction of cell cycle arrest in human NCI-H1975 cells assessed as accumulation at G2/M phase at 4 uM incubated for 48 hrs in presence of Irinotecan by PI staining based flow cytometry relative to control; format: functional
NCI-H1975 [4] = test: Induction of apoptosis in human NCI-H1975 cells at 4 uM incubated for 24 hrs by Annexin V-FITC/PI staining based flow cytometry relative to control; format: functional
NCI-H1975 [5] = test: Induction of DNA damage in human NCI-H1975 cells assessed as DNA tail formation at 8 uM incubated for 48 hrs by Comet assay relative to control; format: functional
NCI-H1975 [6] = test: Induction of apoptosis in human NCI-H1975 cells at 4 uM incubated for 24 hrs in presence of Irinotecan by Annexin V-FITC/PI staining based flow cytometry relative to control; format: functional
MCF7 = test: cells; conditions: Homo sapiens, MCF7, 24 h
Description: Antiproliferative activity against human MCF7 cells incubated for 24 hrs in presence of SAHA by MTT assay

NCI-H1975 [7] = test: Induction of cell cycle arrest in human NCI-H1975 cells assessed as accumulation at G2/M phase incubated for 48 hrs in presence of SAHA by PI staining based flow cytometry relative to control; format: functional
NCI-H2228 [8] = test: Antiproliferative activity against human NCI-H2228 cells incubated for 24 hrs by MTT assay; format: functional, cell-based; conditions: NCI-H2228, 24 h
MDA-MB-231 [9] = test: cells; format: functional, cell-based; conditions: Homo sapiens, MDA-MB-231, 24 h
NCI-H1975 [10] = test: Inhibition of cell migration in human NCI-H1975 cells measured after 24 to 48 hrs in presence of SAHA by wound healing assay relative to control; format: functional; conditions: time 24-48 hrs
NCI-H1975 [11] = test: Inhibition of colony formation in human NCI-H1975 cells incubated for 24 hrs followed by re-culturing in fresh medium without compound measured after 14 days in presence of SAHA by crystal violet staining based analysis relative to control; format: functional
Huh-7 [12] = test: Antiproliferative activity against human Huh-7 cells incubated for 24 hrs in presence of SAHA by MTT assay; format: functional, cell-based; conditions: Huh-7, 24 h
[13] = Toxicity BALB/c nude mouse xenografted with human NCI-H1975 cells assessed as body weight loss at 10 mg/kg, ip bid in presence of SAHA treated for 21 days (Rvb > 11.5 %); format: organism-based; conditions: in vivo, 504 h, time 21 day
NCI-H1975 [14] = test: Antitumor activity against human NCI-H1975 cells xenografted in BALB/c nude mouse at 10 mg/kg, ip bid treated for 21 days in presence of SAHA relative to control; format: functional; conditions: time 21 day
NCI-H1975 [15] = test: Induction of apoptosis in human NCI-H1975 cells incubated for 24 hrs in presence of SAHA by Annexin V-FITC/PI staining based flow cytometry relative to control; format: functional
HCT-116 = test: cells; conditions: Homo sapiens, HCT-116, 24 h
Description: Antiproliferative activity against human HCT-116 cells incubated for 24 hrs in presence of SAHA by MTT assay

PC-3 = test: Antiproliferative activity against human PC-3 cells incubated for 24 hrs in presence of SAHA by MTT assay; format: functional, cell-based; conditions: PC-3, 24 h
NCI-H2228 [16] = test: Antiproliferative activity against human NCI-H2228 cells incubated for 24 hrs in presence of SAHA by MTT assay; format: functional, cell-based; conditions: NCI-H2228, 24 h
MDA-MB-231 [17] = test: cells; conditions: Homo sapiens, MDA-MB-231, 24 h
Description: Antiproliferative activity against human MDA-MB-231 cells incubated for 24 hrs in presence of SAHA by MTT assay

Huh-7 [18] = test: Antiproliferative activity against human Huh-7 cells incubated for 24 hrs by MTT assay; format: functional, cell-based; conditions: Huh-7, 24 h
[19] = molecular target: T1, Polyamine deacetylase HDAC10 (Homo sapiens, UniProt Q969S8)
T1 sequence (Q969S8 whole entry): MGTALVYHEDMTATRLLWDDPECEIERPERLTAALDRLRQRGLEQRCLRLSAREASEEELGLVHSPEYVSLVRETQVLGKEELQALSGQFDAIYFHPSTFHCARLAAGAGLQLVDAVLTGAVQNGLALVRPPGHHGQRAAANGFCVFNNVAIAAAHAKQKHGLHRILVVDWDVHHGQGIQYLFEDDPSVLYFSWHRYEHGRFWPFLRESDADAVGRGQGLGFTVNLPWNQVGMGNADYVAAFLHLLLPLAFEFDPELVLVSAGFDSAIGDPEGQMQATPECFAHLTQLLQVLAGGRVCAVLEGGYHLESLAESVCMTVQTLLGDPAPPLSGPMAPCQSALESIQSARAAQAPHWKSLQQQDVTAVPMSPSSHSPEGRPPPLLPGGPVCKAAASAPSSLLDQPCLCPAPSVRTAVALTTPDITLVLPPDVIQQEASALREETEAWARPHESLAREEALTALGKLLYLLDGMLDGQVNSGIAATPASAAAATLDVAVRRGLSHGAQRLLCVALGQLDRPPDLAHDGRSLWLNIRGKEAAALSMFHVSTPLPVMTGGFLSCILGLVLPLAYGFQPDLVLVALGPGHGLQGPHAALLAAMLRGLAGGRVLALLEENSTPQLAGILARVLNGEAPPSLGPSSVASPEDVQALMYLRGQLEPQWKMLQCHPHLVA
Description: Inhibition of HDAC10 (unknown origin)

Histone deacetylase 5 = Histone deacetylase 5 (Homo sapiens, UniProt Q9UQL6)
Histone deacetylase 5, sequence (Q9UQL6 whole entry): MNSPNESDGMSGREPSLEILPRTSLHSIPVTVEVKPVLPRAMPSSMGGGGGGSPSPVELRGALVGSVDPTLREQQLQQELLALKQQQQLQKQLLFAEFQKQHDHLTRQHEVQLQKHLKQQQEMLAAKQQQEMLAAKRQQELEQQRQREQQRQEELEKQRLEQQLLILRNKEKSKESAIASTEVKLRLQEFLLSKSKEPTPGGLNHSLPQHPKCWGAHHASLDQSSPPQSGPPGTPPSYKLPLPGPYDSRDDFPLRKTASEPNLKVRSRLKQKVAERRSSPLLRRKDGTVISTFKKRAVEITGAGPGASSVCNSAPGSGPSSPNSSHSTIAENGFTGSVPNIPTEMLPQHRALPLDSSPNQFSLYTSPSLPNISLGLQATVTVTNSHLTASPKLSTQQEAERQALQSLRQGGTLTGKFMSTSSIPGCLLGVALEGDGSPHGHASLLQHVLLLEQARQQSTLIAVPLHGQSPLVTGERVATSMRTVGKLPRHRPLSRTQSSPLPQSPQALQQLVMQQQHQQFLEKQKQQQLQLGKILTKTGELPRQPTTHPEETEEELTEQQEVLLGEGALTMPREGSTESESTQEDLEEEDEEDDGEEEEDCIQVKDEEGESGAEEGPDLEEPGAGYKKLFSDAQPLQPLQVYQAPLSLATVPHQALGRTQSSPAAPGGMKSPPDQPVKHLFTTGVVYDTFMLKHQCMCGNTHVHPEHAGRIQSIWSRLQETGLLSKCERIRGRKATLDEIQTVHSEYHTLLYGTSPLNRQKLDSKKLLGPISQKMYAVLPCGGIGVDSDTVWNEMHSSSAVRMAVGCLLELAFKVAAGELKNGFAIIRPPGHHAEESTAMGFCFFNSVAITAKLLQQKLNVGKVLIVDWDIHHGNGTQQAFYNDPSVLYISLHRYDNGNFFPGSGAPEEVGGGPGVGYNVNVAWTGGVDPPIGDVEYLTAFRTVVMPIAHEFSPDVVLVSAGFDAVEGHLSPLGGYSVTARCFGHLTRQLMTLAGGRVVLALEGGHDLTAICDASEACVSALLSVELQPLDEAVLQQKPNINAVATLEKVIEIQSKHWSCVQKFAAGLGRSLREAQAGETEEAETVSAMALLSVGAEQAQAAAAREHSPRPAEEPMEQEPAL
Description: Inhibition of HDAC5 (unknown origin)

Histone deacetylase 4 = Histone deacetylase 4 (Homo sapiens, UniProt P56524)
Histone deacetylase 4, sequence (P56524 whole entry): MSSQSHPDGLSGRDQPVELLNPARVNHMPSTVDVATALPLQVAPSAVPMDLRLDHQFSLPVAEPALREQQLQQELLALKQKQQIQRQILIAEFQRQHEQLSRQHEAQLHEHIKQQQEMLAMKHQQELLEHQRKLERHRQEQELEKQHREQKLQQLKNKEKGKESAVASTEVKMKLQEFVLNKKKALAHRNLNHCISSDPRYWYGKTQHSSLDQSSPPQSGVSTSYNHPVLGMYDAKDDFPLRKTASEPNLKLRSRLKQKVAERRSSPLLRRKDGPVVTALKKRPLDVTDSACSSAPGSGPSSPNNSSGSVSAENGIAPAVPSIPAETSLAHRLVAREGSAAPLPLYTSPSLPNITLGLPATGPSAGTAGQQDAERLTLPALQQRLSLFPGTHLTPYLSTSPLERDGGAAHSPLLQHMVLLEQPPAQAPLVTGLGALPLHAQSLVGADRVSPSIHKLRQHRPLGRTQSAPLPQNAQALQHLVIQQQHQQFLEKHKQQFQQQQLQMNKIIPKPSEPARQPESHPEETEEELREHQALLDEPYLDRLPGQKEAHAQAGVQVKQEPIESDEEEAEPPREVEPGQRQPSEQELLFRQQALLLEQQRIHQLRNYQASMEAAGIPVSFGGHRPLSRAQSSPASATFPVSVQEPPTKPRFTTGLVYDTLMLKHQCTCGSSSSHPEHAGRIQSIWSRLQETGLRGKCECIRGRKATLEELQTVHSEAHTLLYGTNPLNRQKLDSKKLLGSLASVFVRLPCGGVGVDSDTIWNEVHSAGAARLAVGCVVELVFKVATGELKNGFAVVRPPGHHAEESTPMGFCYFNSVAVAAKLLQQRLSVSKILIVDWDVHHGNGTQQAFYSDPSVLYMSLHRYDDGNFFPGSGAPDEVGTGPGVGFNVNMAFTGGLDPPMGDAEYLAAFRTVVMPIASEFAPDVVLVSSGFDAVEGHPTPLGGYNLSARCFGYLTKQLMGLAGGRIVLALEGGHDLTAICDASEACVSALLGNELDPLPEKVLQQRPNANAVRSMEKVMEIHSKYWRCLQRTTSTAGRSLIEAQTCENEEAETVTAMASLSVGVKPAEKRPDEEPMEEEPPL
Description: Inhibition of HDAC4 (unknown origin)

[20] = molecular target: T2, Protein deacetylase HDAC6 (Homo sapiens, UniProt Q9UBN7)
T2 sequence (Q9UBN7 whole entry): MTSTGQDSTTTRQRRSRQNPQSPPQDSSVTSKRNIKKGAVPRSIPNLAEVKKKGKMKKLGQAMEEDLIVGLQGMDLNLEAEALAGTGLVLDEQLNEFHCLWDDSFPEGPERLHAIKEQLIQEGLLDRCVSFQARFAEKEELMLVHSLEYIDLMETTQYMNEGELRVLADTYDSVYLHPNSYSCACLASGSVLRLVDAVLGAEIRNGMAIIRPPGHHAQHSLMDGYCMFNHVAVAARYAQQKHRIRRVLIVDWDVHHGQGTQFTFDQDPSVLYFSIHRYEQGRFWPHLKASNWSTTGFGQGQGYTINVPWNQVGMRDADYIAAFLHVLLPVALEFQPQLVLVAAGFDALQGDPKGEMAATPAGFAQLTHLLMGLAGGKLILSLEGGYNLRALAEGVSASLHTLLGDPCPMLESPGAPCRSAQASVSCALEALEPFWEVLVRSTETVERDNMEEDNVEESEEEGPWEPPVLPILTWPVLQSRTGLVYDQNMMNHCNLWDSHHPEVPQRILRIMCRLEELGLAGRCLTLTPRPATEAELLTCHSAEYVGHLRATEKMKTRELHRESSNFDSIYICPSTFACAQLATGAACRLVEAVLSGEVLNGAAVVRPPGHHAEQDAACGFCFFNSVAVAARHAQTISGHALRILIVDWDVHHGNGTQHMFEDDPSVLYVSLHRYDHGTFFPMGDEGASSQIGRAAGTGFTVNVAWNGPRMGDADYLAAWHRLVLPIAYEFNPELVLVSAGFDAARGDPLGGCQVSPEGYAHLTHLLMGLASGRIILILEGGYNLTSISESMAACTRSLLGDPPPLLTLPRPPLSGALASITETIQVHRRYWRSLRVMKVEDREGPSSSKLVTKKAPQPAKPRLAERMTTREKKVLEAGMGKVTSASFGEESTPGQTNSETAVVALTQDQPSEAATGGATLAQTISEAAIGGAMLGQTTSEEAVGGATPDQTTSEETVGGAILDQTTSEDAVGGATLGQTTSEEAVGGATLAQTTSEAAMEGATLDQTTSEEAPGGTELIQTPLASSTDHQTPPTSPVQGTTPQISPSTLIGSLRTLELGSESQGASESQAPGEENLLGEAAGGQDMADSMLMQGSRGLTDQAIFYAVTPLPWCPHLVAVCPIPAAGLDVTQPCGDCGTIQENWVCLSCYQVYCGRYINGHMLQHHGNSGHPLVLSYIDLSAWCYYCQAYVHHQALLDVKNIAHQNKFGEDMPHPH
Description: Inhibition of HDAC6 (unknown origin)

Histone deacetylase 7 = molecular target: T3, Histone deacetylase 7 (Homo sapiens, UniProt Q8WUI4)
T3 sequence (Q8WUI4 whole entry): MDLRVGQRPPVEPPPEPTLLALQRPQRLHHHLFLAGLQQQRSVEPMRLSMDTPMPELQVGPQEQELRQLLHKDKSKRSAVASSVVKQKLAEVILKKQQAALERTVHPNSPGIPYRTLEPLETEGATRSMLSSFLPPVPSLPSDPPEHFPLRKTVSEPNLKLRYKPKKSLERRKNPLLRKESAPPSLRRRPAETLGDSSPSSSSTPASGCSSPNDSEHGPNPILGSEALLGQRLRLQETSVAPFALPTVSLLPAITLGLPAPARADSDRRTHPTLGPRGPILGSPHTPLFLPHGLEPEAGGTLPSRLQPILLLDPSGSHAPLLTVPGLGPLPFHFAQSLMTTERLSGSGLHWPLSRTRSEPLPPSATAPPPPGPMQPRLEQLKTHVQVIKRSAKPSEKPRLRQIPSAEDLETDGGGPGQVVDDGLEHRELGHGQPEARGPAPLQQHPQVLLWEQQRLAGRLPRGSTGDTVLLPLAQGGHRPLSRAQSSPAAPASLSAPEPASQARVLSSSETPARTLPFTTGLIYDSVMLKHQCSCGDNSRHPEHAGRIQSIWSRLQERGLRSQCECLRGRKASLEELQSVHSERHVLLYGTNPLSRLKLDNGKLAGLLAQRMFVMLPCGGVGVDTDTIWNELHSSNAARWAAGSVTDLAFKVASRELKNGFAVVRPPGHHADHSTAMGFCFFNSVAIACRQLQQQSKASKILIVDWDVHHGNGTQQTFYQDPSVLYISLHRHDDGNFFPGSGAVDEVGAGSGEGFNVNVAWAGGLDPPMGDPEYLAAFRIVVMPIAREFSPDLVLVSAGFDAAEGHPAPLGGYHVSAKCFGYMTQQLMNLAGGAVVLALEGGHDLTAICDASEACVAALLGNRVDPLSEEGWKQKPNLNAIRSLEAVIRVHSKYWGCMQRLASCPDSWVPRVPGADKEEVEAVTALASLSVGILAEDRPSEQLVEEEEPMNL
Description: Inhibition of HDAC7 (unknown origin)

Histone deacetylase 11 = molecular target: T4, Histone deacetylase 11 (Homo sapiens, UniProt Q96DB2)
T4 sequence (Q96DB2 whole entry): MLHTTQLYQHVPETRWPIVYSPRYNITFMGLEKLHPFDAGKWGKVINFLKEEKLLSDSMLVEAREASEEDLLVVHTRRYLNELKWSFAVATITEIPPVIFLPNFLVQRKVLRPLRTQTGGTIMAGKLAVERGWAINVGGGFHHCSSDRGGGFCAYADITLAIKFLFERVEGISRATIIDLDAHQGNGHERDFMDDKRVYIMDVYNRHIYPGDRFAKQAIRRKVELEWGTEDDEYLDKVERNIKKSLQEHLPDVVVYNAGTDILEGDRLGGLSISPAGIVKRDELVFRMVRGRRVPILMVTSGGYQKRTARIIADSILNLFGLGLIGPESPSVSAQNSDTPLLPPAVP
Description: Inhibition of HDAC11 (unknown origin)

Histone deacetylase 9 = Histone deacetylase 9 (Homo sapiens, UniProt Q9UKV0)
Histone deacetylase 9, sequence (Q9UKV0 whole entry): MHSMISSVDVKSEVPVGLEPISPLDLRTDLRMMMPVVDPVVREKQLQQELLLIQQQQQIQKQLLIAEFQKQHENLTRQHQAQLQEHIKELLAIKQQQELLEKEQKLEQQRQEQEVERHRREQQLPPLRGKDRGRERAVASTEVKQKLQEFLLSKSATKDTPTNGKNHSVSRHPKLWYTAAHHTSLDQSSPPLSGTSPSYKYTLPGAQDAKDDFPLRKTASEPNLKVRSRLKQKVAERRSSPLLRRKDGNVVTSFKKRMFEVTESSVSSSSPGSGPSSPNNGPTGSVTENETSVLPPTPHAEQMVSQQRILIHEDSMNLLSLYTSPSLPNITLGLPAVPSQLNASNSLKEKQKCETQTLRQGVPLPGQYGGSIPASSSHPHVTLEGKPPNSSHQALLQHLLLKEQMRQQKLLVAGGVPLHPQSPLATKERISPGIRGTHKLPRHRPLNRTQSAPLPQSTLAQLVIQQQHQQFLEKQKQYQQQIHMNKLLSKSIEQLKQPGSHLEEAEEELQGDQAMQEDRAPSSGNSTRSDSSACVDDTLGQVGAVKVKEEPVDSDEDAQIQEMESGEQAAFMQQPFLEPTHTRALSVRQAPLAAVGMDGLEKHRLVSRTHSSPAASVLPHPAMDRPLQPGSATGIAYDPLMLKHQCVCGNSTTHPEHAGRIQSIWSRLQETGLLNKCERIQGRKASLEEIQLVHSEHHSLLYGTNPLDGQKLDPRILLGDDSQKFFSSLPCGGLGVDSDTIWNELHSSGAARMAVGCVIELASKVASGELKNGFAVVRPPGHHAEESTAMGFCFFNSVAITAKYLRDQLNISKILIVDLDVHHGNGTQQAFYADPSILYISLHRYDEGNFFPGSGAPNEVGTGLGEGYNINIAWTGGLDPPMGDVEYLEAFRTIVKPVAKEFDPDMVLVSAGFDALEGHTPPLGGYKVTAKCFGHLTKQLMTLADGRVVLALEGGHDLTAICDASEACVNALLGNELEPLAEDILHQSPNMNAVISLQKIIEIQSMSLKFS
Description: Inhibition of HDAC9 (unknown origin)

Histone deacetylase 8 = molecular target: T5, Histone deacetylase 8 (Homo sapiens, UniProt Q9BY41)
T5 sequence (Q9BY41 whole entry): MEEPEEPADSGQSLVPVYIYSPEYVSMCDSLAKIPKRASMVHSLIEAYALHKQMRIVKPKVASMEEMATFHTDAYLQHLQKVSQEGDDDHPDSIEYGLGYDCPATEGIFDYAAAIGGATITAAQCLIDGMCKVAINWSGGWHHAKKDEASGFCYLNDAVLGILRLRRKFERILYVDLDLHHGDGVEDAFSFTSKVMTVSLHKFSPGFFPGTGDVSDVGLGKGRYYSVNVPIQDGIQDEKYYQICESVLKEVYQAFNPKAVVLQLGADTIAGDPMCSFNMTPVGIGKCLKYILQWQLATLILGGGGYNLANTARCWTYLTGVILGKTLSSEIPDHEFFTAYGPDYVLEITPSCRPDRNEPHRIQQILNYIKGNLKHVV
Description: Inhibition of HDAC8 (unknown origin)

Histone deacetylase 2 = Histone deacetylase 2 (Homo sapiens, UniProt Q92769); test: Inhibition of HDAC2 (unknown origin)
Histone deacetylase 2, sequence (Q92769 whole entry): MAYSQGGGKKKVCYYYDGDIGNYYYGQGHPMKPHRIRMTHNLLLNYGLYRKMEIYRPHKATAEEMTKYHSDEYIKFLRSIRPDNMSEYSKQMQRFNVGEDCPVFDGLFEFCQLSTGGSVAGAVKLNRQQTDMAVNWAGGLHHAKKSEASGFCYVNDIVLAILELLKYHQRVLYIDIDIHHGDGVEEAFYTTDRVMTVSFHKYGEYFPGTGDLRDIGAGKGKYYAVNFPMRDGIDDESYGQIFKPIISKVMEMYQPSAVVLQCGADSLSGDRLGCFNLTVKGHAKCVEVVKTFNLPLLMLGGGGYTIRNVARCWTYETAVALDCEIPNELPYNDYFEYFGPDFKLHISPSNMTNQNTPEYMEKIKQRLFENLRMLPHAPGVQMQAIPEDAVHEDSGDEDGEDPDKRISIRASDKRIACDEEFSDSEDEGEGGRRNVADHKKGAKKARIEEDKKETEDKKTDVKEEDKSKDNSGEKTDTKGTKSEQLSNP

Histone deacetylase 3 = Histone deacetylase 3 (Homo sapiens, UniProt O15379)
Histone deacetylase 3, sequence (O15379 whole entry): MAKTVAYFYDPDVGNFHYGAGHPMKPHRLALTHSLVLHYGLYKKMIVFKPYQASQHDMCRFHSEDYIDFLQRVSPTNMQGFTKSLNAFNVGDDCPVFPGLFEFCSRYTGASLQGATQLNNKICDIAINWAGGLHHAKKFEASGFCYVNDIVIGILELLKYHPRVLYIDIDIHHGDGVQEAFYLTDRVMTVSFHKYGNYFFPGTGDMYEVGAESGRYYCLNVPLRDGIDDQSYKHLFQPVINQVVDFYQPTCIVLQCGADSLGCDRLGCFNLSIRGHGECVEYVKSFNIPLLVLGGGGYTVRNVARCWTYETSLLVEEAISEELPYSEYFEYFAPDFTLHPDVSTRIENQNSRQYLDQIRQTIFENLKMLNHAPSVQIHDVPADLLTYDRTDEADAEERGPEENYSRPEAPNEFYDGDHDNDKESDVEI
Description: Inhibition of HDAC3 (unknown origin)

## O=C(CCCCCCC(=O)Nc1ccccc1)NO [VORINOSTAT]
NCI-H1975 [1]
  Activity: 30.4%
[2]
  Activity: 22.4%
NCI-H1975 [3]
  Activity: 35%
NCI-H1975 [4]
  Activity: 46%
NCI-H1975 [5]
  Activity: 19.4%
NCI-H1975 [6]
  Activity: 56.1%

## CCc1c2c(nc3ccc(OC(=O)N4CCC(N5CCCCC5)CC4)cc13)-c1cc3c(c(=O)n1C2)COC(=O)[C@]3(O)CC [IRINOTECAN]
MCF7
  IC50: 970 nM
NCI-H1975 [7]
  Activity: 35%
NCI-H2228 [8]
  IC50: 3480 nM
MDA-MB-231 [9]
  IC50: > 8000 nM
NCI-H1975 [10]
  inhibition (INH): 40.7%
NCI-H1975 [11]
  inhibition (INH): 61.8%
Huh-7 [12]
  IC50: 1790 nM
[13]
  Activity: 22.4%
NCI-H1975 [14]; Mus musculus, NCI-H1975, 504 h, read-out: TGI
  inhibition in vivo at 10 mg/kg: 65.8%
NCI-H1975 [14]
  T/C: 39.1%
NCI-H1975 [15]
  Activity: 56.1%
HCT-116
  IC50: 730 nM
PC-3
  IC50: 1240 nM
NCI-H2228 [16]
  IC50: 1450 nM
MDA-MB-231 [17]
  IC50: 1340 nM
Huh-7 [18]
  IC50: > 8000 nM

## O=C(CCCCCCn1c2cc3c(cc2c2ncc4ccccc4c21)OCO3)NO
[19]
  IC50: 6 nM
Histone deacetylase 5
  IC50: > 5000 nM
Histone deacetylase 4
  IC50: > 5000 nM
[20]
  IC50: 4 nM
Histone deacetylase 7
  IC50: > 5000 nM
Histone deacetylase 11
  IC50: > 5000 nM
Histone deacetylase 9
  IC50: > 5000 nM
Histone deacetylase 8
  IC50: > 1000 nM
Histone deacetylase 2
  IC50: 3 nM
Histone deacetylase 3
  IC50: 3 nM
